The record followed here is ChEMBL document CHEMBL4715758, “Hit-to-Lead Optimization of a Novel Class of Potent, Broad-Spectrum Trypanosomacides” (J Med Chem, 2016).

SMILES strings stand for the structures. In brackets after ≈: the same amount, converted by molar mass. Activity calls are given as the source filed them. The calls are words filed in the database; no cut-off is given here. Some results are limits rather than exact numbers.

A short description of data set [1]: Drug metabolism in human liver microsomes assessed as N-(2-(4-(2,4-difluorophenyl)thiazol-2-yl)ethyl)piperidine-1-carboxamide metabolite formation in presence of NADPH and UDPGA measured after 60 mins by LC-MS analysis. Type of data set: ADME, Microsome. Conditions: 1 h. (In general: Liver microsomes are a subcellular fraction often used to study metabolism.)

Data set [2] can be described thus: Metabolic stability in human liver microsomes assessed as degradation half-life measured after 60 mins in presence of NADPH generating system by LC-MS analysis. Type of data set: ADME, Microsome. Conditions: read-out: T50.
Data set [3] in a line: Intrinsic clearance in human liver microsomes assessed per mg protein measured after 60 mins in presence of NADPH generating system by LC-MS analysis. Type of data set: ADME, Microsome. The conditions noted are these: read-out: CLH.
A short description of data set [4]: Kinetic solubility of compound at pH 2 by nephelometry. Format: physicochemical. Conditions: buffer, read-out: Kinetic_solubility.
In the next data set the test system is L6. As to the kind of experiment: Cytotoxicity against rat L6 cells assessed as reduction in cell viability measured after 72 hrs by alamar blue dye based fluorimetry analysis. Conditions: L6, 72 h. In general terms: Alamar Blue is a resazurin reagent that responds to reducing activity.
Data set [5] can be described thus: Metabolic stability in human liver microsome assessed as compound degradation measured over 60 mins in absence of cofactor by LC-MS analysis. The conditions noted are these: liver microsomes, read-out: Drug degradation. Type of data set: ADME.
Data set [6] in a line: Drug metabolism in human liver microsomes assessed as secondary hydroxylation by measuring N-(2-(4-(2,4-difluorophenyl)thiazol-2-yl)ethyl)piperidine-1-carboxamide metabolite formation in presence of NADPH measured after 60 mins by LC-MS analysis. Conditions: 1 h. Format: ADME, Microsome.
The test system of data set [7] is Trypanosoma cruzi. As to the kind of experiment: Antitrypanosomal activity against Trypanosoma cruzi Tulahuen strain trypomastigotes infected in rat H9c2 cells incubated for 72 hrs by DRAQ5 DNA dye based imaging analysis. Type of data set: functional, organism-based. Conditions: H9c2, 72 h.
A short description of data set [8]: Partition coefficient, log D of compound at pH 7.4 by HPLC. Type of data set: physicochemical. The conditions noted are these: octanol/water.
Data set [9] has as its system Trypanosoma cruzi. As to the kind of experiment: Antitrypanosomal activity against Trypanosoma cruzi Tulahuen C4 strain amastigotes infected in rat L6 cells measured after 96 hrs by inverted microscopy analysis. Type of data set: functional, organism-based. Conditions: Tulahuen C4, L6, 96 h.
Another data set concerns Leishmania donovani. As to the kind of experiment: Antileishmanial activity against Leishmania donovani MHOM/ET/67/L82 amastigotes measured after 72 hrs by alamar blue dye based fluorimetry analysis. Type of data set: functional, organism-based. Conditions: MHOM/ET/67/L82, 72 h.
Data set [10] concerns Trypanosoma cruzi. The data set is described as follows: Antitrypanosomal activity against Trypanosoma cruzi infected in vero cells assessed as parasite growth inhibition incubated from 24 to 96 hrs by time kill assay. Type of data set: functional, organism-based.
The test system of the next data set is Vero. The data set is described as follows: Cytotoxicity against African green monkey Vero cells assessed as reduction in cell viability. Type of data set: cell-based. The conditions noted are these: chlorocebus sabaeus.
The nature of data set [11]: Drug metabolism in human liver microsomes assessed as hydroxylation by measuring 3-fluoro-N-(2-hydroxy-2-(2-phenylthiazol-4-yl)ethyl)benzamide formation in presence of NADPH measured after 60 mins by LC-MS analysis. Type of data set: ADME, Microsome. The conditions noted are these: 1 h.
Data set [12] deals with Trypanosoma cruzi. The data set is described as follows: Inhibition of Trypanosoma cruzi Tulahuen C4 CYP51 expressed in Escherichia coli JM109 using BOMCC as substrate in presence of NADPH by fluorescence assay.
The test system of data set [13] is Trypanosoma cruzi. The data set is described as follows: Antitrypanosomal activity against Trypanosoma cruzi infected in vero cells assessed as reduction in parasite growth inhibition incubated for 96 hrs by time kill assay relative to nifurtimox. Format: functional.
The nature of data set [14]: Drug metabolism in human liver microsomes assessed as hydroxylation by measuring 3-fluoro-N-(2-(2-(4-hydroxyphenyl)thiazol-4-yl)ethyl)benzamide formation in presence of NADPH measured after 60 mins by LC-MS analysis. Format: ADME, Microsome. The conditions noted are these: 1 h.
The nature of data set [15]: Drug metabolism in human liver microsomes assessed as oxidative dealkylation by measuring 2-(2-phenylthiazol-4-yl)-ethanol formation in presence of NADPH measured after 60 mins by LC-MS analysis. Type of data set: ADME, Microsome. The conditions noted are these: 1 h.
The subject of another data set is Plasmodium falciparum. As to the kind of experiment: Antiplasmodial activity against chloroquine and pyrimethamine resistant erythrocytic stage of Plasmodium falciparum K1 strain assessed as reduction in [3H]hypoxanthine incorporation measured after 48 hrs by liquid scintillation counting method. Format: functional, organism-based.
A short description of data set [16]: Drug metabolism in human liver microsomes assessed as 2-(2-phenylthiazol-4-yl)-ethanol metabolite formation in presence of NADPH and UDPGA measured after 60 mins by LC-MS analysis. Format: ADME, Microsome. Conditions: 1 h.
Data set [17] in a line: Protein binding in human plasma by HPLC-MS analysis. Conditions: read-out: PPB (converted). Format: ADME, cell-free.
Data set [18] is described as follows: Metabolic stability in mouse liver microsomes assessed as degradation half-life measured after 60 mins in presence of NADPH generating system by LC-MS analysis. Type of data set: ADME, Microsome. Conditions: read-out: T50.
A short description of data set [19]: Cmax in Balb/c mouse at 50 mg/kg, po administered via gavage. Format: ADME, organism-based. Details: route oral, dose 50 mg/kg. Conditions: in vivo.
Data set [20] is described as follows: Dose normalized Cmax in Balb/c mouse at 50 mg/kg, po administered via gavage. Format: ADME, organism-based. Conditions: in vivo.
Data set [21] is described as follows: Tmax in Balb/c mouse at 50 mg/kg, po administered via gavage in presence of 1-aminobenzotriazole. Format: ADME, organism-based. The conditions noted are these: in vivo.
Data set [22] is described as follows: Cmax in Balb/c mouse at 50 mg/kg, po administered via gavage in presence of 1-aminobenzotriazole. Format: ADME, organism-based. Conditions: in vivo. On the set-up: route oral, dose 50 mg/kg.
Data set [23] is described as follows: AUClast (0 to t) in Balb/c mouse at 50 mg/kg, po administered via gavage in presence of 1-aminobenzotriazole. Conditions: in vivo. Format: ADME, organism-based. Details: route oral, time 0 - last, dose 50 mg/kg.
Data set [24] in a line: Dose normalized AUClast in Balb/c mouse at 50 mg/kg, po administered via gavage in presence of 1-aminobenzotriazole. Format: ADME, organism-based. Conditions: in vivo.
Data set [25] can be described thus: Intrinsic clearance in mouse liver microsomes assessed per mg protein measured after 60 mins in presence of NADPH generating system by LC-MS analysis. Format: ADME, Microsome. Conditions: read-out: CLH.
Data set [26] has as its system Trypanosoma cruzi. The data set is described as follows: Antitrypanosomal activity against Trypanosoma cruzi Brazil trypomastigotes coexpressing luciferase infected in BALB/c mouse model assessed as reduction in parasite load at 50 mg/kg, po BID administered for 5 days measured after 10 days. Format: functional, organism-based. Conditions: time 10.0 day.
A short description of data set [27]: Toxicity in Balb/c mouse infected with Trypanosoma cruzi Brazil trypomastigotes coexpressing luciferase assessed as hunched-back posture at 50 mg/kg, po BID administered for 5 days. Format: organism-based. The conditions noted are these: in vivo, 120 h, time 5 day.
The test system of data set [28] is Trypanosoma brucei brucei. As to the kind of experiment: Antitrypanosomal activity against Trypanosoma brucei brucei Lister 427 strain blood stream forms incubated for 48 hrs by resazurin dye based fluorescence assay. Format: functional, organism-based. Conditions: Lister 427, 48 h.
The nature of data set [29]: Toxicity in Balb/c mouse infected with Trypanosoma cruzi Brazil trypomastigotes coexpressing luciferase assessed as ruffled fur at 50 mg/kg, po BID administered for 5 days. Type of data set: organism-based. The conditions noted are these: in vivo, 120 h, time 5 day.
Data set [30] can be described thus: Metabolic stability in human liver microsomes assessed as half-life measured after 60 mins in presence of NADPH generating system by LC-MS analysis. Format: ADME, Microsome.
Data set [31] is described as follows: AUClast (0 to t) in Balb/c mouse at 50 mg/kg, po administered via gavage. Type of data set: ADME, organism-based. On the set-up: time 0 - last, route oral, dose 50 mg/kg. The conditions noted are these: in vivo.
For data set [32], the system named is Trypanosoma cruzi. The data set is described as follows: Antitrypanosomal activity against Trypanosoma cruzi Brazil trypomastigotes coexpressing luciferase infected in BALB/c mouse model assessed as reduction in parasite load at 50 mg/kg, po BID administered for 5 days followed by cyclophosphamide addition 30 days post last dose and measured 10 days post cyclophosphamide addition. Format: functional, organism-based. Conditions: time 45.0 day.

A short description of data set [33]: Tmax in Balb/c mouse at 50 mg/kg, po administered via gavage. Type of data set: ADME, organism-based. Conditions: in vivo.
Data set [34] is described as follows: Selectivity index, ratio of IC50 for cytotoxicity against rat H9c2 cells assessed as reduction in cell viability to IC50 for antitrypanosomal against Trypanosoma cruzi Tulahuen trypomastigotes infected in rat H9c2 cells. Format: toxicity, cell-based. The conditions noted are these: read-out: Ratio IC50.
A short description of data set [35]: Selectivity index, ratio of IC50 for cytotoxicity against human HEK293 cells assessed as reduction in cell viability to IC50 for antitrypanosomal activity against Trypanosoma brucei brucei Lister 427 blood stream form. Format: toxicity, cell-based. The conditions noted are these: read-out: Ratio IC50.
Data set [36] is described as follows: Dose normalized Cmax in Balb/c mouse at 50 mg/kg, po administered via gavage in presence of 1-aminobenzotriazole. Format: ADME, organism-based. The conditions noted are these: in vivo.
Data set [37] can be described thus: Dose normalized AUClast in Balb/c mouse at 50 mg/kg, po administered via gavage. Type of data set: ADME, organism-based. Conditions: in vivo.
Data set [38] in a line: Toxicity in Balb/c mouse infected with Trypanosoma cruzi Brazil trypomastigotes coexpressing luciferase assessed as low resistance to handling at 50 mg/kg, po BID administered for 5 days. Format: organism-based. Conditions: in vivo, 120 h, time 5 day.

The term IC50 denotes the midpoint of a concentration-inhibition curve. The logD is lipophilicity at a set pH, counting ionised and neutral species. In the case of `O=C(NCCc1csc(-c2ccccc2)n1)c1cccc(F)c1`, the Drug metabolism entry in data set [1], in data set [6], in data set [11], in data set [14], in [15] and in [16] was “Metabolite_Detected” each time. Moreover, the half-life in data set [2] was found to be 4 min. Further, the microsomal CLint in [3] came to 484 µL/min/mg. The solubility kinetic in data set [4] was determined as 6 µg/mL (≈ 18.4 µM). Also, the IC50 with L6 worked out at 51000 nM; in the data set on Trypanosoma cruzi [7] it was 500 nM; in the data set on Trypanosoma cruzi [9] it was 200 nM; with Leishmania donovani it was 10000 nM; in the data set on Trypanosoma cruzi [10] it was 400 nM; in the data set on Plasmodium falciparum, 41000 nM. Moreover, the metabolised at 1 h in data set [5] worked out at 14%. In data set [8], the logD was 3.6. The Activity in the data set on Vero amounted to 17 µM. Besides, in the data set on Trypanosoma cruzi [12], the inhibition entry was “inactive”. For the same compound, the Imax with Trypanosoma cruzi [13] is 106%. The fraction unbound in [17] is 0.04.
As usually defined, the Cmax is the highest concentration seen after dosing. By Tmax is commonly meant the time from dosing to the highest level. The term AUC(0-t) denotes exposure summed from dosing to a finite time, without extrapolation to infinity. With `O=C(NCCc1csc(-c2ccc(F)cc2F)n1)N1CCCCC1`, the half-life is less than 2 min in [18], 8 min in data set [2] and 5 min in data set [30]. Besides, the Cmax in data set [19] came out at 212 ng/mL; in data set [22] it was 7090 ng/mL. Also, the Cmax/dose turned out to be 4.3 kg·ng/mL/mg in data set [20] and 142 kg·ng/mL/mg in data set [36]. The time of peak concentration (Tmax) in data set [21] was 30 min; in data set [33], 15 min. For the same compound, the results for the microsomal CLint in data set [3] and in [25] were 225 µL/min/mg and more than 1600 µL/min/mg, respectively. In addition, the AUC(0-t) in data set [23] is 14800 ng·h/mL; in data set [31], 127 ng·h/mL. The AUClast/dose in data set [24] was 295 ng·h/mL/mg/kg; in [37], 2.54 ng·h/mL/mg/kg. Further, the outcome in the data set on Trypanosoma cruzi [26] was Active. Also, the Activity entry in data set [27], in data set [29] and in data set [38] was “Toxic” in each case. Besides, the IC50 was 24 nM in data set [28] and 20 nM with Trypanosoma cruzi [7]. Also, the outcome in the data set with Trypanosoma cruzi [32] was inactive. Further, the values for the selectivity ratio in data set [34] and in data set [35] were more than 3160 and 433, respectively.
